Experimental data from US20090196862A1, “High dosage Vitamin D” (priority 2008, published 2009).

Tests used:
[1] = literature report; cited from earlier work
[2] = Clinical observation of lipids, inflammatory levels and blood pressure on oral D3; format: in vivo, human; conditions: oral administration
Description: The present inventor observed lipid effects (reduced triglycerides, a raise in the levels of HDL [“good cholesterol”] and a reduction in LDL particles [“bad cholesterol”]) from oral supplementation of an oil-based preparation of D3.

atherosclerotic plaque = assay: Coronary / atherosclerotic plaque by heart CT scan score in patients; format: in vivo, human; conditions: for effect on plaques (heart CT scan score): patients with coronary plaques
Procedure: In clinical practice with regard to plaque formation, the present inventor observed that blood serum levels of D3 of about 50 ng/mL provide sufficient effect. Below 50 ng/mL, there is an incremental effect, with a very small effect as low as 20 ng/mL, but a significant effect emerging at 40-45 ng/mL. By 50 ng/mL, there is a significant and often sufficient effect. About 50 ng/mL of 25-hydroxy-vitamin D [25(OH)D] in blood serum provides a reasonably strong effect against plaque buildup.

SMILES	conversion of D2 to D3 in humans [1]	blood pressure [2]	inflammatory levels [2]	blood serum level of D3 at which a significant effect emerges (plaque formation) (atherosclerotic plaque; clinical practice)	blood serum level of D3 providing sufficient effect on plaque formation (atherosclerotic plaque; clinical practice)	blood serum level of D3 with a very small effect (plaque formation) (atherosclerotic plaque; clinical practice)	effect on plaques (heart CT scan score) (atherosclerotic plaque; listed as oral D3)	effect on plaques (heart CT scan score) (atherosclerotic plaque; listed as vitamin D)
C=C1CC[C@H](O)C/C1=C/C=C1\CCC[C@]2(C)[C@@H]([C@H](C)/C=C/[C@H](C)C(C)C)CC[C@@H]12 [D2, ergocalciferol]	≤ 70%							
C=C1CC[C@H](O)C/C1=C/C=C1\CCC[C@]2(C)[C@@H]([C@H](C)CCCC(C)C)CC[C@@H]12 [D3, cholecalciferol]		reductions	reductions	40 to 45 ng/mL	about 50 ng/mL	20 ng/mL	positive effect	decreased evidence of plaques
